Active and inactive are the calls of the source. The rule behind the calls is not given here.
Tests used:
Mus musculus [1] = assay: Anticonvulsant activity in ip dosed albino CF1 mouse assessed as protection against 6 Hz current-induced seizure by measuring time to peak effect; format: functional
[2] = Protective index, ratio of TD50 for neurotoxicity in ip dosed albino CF1 mouse to ED50 for anticonvulsant activity in ip dosed 6 Hz current-induced seizure albino CF1 mouse model; settings: in vivo
Mus musculus [3] = assay: Anticonvulsant activity in albino CF1 mouse assessed as protection against 32 mA current-induced seizure at 300 mg/kg, ip after 0.5 hrs by 6 Hz psychomotor test; format: functional, organism-based
Mus musculus [4] = assay: Neurotoxicity in albino CF1 mouse assessed as behavioral impairment at 30 mg/kg, ip after 2 hrs by rotorod test; format: toxicity, organism-based; settings: in vivo
[5] = Neurotoxicity in ip dosed albino CF1 mouse assessed as motor impairment by rotorod test; format: toxicity, organism-based; settings: in vivo
[6] = Protective index, ratio of TD50 for neurotoxicity in ip dosed albino Sprague-Dawley rat to ED50 for anticonvulsant activity in ip dosed subcutaneous metrazol-induced seizure albino Sprague-Dawley rat model; format: toxicity, organism-based; settings: in vivo, read-out: Ratio TD50/ED50
Mus musculus [7] = assay: Neurotoxicity in albino CF1 mouse assessed as behavioral impairment at 100 mg/kg, ip after 0.25 hrs by rotorod test; format: toxicity, organism-based; settings: in vivo
Mus musculus [8] = assay: Anticonvulsant activity in ip dosed albino CF1 mouse assessed as protection against subcutaneous metrazol-induced seizures; format: functional
Mus musculus [9] = assay: Anticonvulsant activity in ip dosed albino CF1 mouse assessed as protection against subcutaneous metrazol-induced seizures by measuring time to peak effect; format: functional
[10] = Protective index, ratio of TD50 for neurotoxicity in ip dosed albino CF1 mouse to ED50 for anticonvulsant activity in ip dosed maximal electroshock-induced seizure albino CF1 mouse model; format: toxicity, organism-based; settings: in vivo, read-out: Ratio TD50/ED50
Mus musculus [11] = assay: Anticonvulsant activity in albino CF1 mouse assessed as protection against 44 mA current-induced seizure at 100 mg/kg, ip after 0.25 hrs by 6 Hz psychomotor test; format: functional, organism-based
Mus musculus [12] = assay: Neurotoxicity in albino CF1 mouse assessed as behavioral impairment at 100 mg/kg, ip after 1 hr by rotorod test; format: toxicity, organism-based; settings: in vivo
Rattus norvegicus [13] = assay: Anticonvulsant activity in albino Sprague-Dawley rat assessed as protection against maximal electroshock-induced seizures at 30 mg/kg, po after 2 hrs; format: functional, organism-based
Rattus norvegicus [14] = assay: Neurotoxicity in albino Sprague-Dawley rat assessed as behavioral impairment at 30 mg/kg, po after 2 hrs by rotorod test; format: toxicity, organism-based; settings: in vivo
[15] = Protective index, ratio of TD50 for neurotoxicity in ip dosed albino Sprague-Dawley rat to ED50 for anticonvulsant activity in ip dosed maximal electroshock-induced seizure albino Sprague-Dawley rat model; format: toxicity, organism-based; settings: in vivo, read-out: Ratio TD50/ED50
Rattus norvegicus [16] = assay: Anticonvulsant activity in albino Sprague-Dawley rat assessed as protection against maximal electroshock-induced seizures at 30 mg/kg, po after 0.5 hrs; format: functional, organism-based
Rattus norvegicus [17] = assay: Neurotoxicity in albino Sprague-Dawley rat assessed as behavioral impairment at 30 mg/kg, po after 1 hr by rotorod test; format: toxicity, organism-based; settings: in vivo
Rattus norvegicus [18] = assay: Neurotoxicity in albino Sprague-Dawley rat assessed as behavioral impairment at 30 mg/kg, ip after 2 hrs by rotorod test; format: toxicity, organism-based; settings: in vivo
Rattus norvegicus [19] = assay: Anticonvulsant activity in albino Sprague-Dawley rat assessed as protection against maximal electroshock-induced seizures at 30 mg/kg, ip after 1 hr; format: functional, organism-based
Rattus norvegicus [20] = assay: Anticonvulsant activity in albino Sprague-Dawley rat assessed as protection against maximal electroshock-induced seizures at 30 mg/kg, ip after 0.25 hrs; format: functional, organism-based
Rattus norvegicus [21] = assay: Neurotoxicity in albino Sprague-Dawley rat assessed as behavioral impairment at 30 mg/kg, po after 0.5 hrs by rotorod test; format: toxicity, organism-based; settings: in vivo
Rattus norvegicus [22] = assay: Neurotoxicity in albino Sprague-Dawley rat assessed as behavioral impairment at 30 mg/kg, ip after 1 hr by rotorod test; format: toxicity, organism-based; settings: in vivo
Rattus norvegicus [23] = assay: Neurotoxicity in albino Sprague-Dawley rat assessed as behavioral impairment at 30 mg/kg, po after 0.25 hrs by rotorod test; format: toxicity, organism-based; settings: in vivo
Rattus norvegicus [24] = assay: Anticonvulsant activity in ip dosed albino Sprague-Dawley rat assessed as protection against subcutaneous metrazol-induced seizures; format: functional
Rattus norvegicus [25] = assay: Anticonvulsant activity in albino Sprague-Dawley rat assessed as protection against maximal electroshock-induced seizures at 30 mg/kg, po after 1 hr; format: functional, organism-based
Mus musculus [26] = assay: Anticonvulsant activity in albino CF1 mouse assessed as protection against 32 mA current-induced seizure at 30 mg/kg, ip after 2 hrs by 6 Hz psychomotor test; format: functional, organism-based
Rattus norvegicus [27] = assay: Anticonvulsant activity in albino Sprague-Dawley rat assessed as protection against maximal electroshock-induced seizures at 30 mg/kg, ip after 2 hrs; format: functional, organism-based
Mus musculus [28] = assay: Anticonvulsant activity in albino CF1 mouse assessed as protection against maximal electroshock-induced seizures at 100 mg/kg, ip after 0.5 hrs; format: functional, organism-based
Mus musculus [29] = assay: Neurotoxicity in albino CF1 mouse assessed as behavioral impairment at 300 mg/kg, ip after 0.5 hrs by rotorod test; format: toxicity, organism-based; settings: in vivo
[30] = Protective index, ratio of TD50 for neurotoxicity in ip dosed albino CF1 mouse to ED50 for anticonvulsant activity in ip dosed […] metrazol-induced seizure albino CF1 mouse model; format: toxicity, organism-based; settings: in vivo, read-out: Ratio TD50/ED50
Mus musculus [31] = assay: Anticonvulsant activity in albino CF1 mouse assessed as protection against maximal electroshock-induced seizures at 100 mg/kg, ip after 2 hrs; format: functional, organism-based
Mus musculus [32] = assay: Neurotoxicity in albino CF1 mouse assessed as behavioral impairment at 100 mg/kg, ip after 2 hrs by rotorod test; format: toxicity, organism-based; settings: in vivo
Rattus norvegicus [33] = assay: Neurotoxicity in albino Sprague-Dawley rat assessed as behavioral impairment at 30 mg/kg, ip after 0.25 hrs by rotorod test; format: toxicity, organism-based; settings: in vivo
Mus musculus [34] = assay: Neurotoxicity in albino CF1 mouse assessed as behavioral impairment at 30 mg/kg, ip after 0.5 hrs by rotorod test; format: toxicity, organism-based; settings: in vivo
Mus musculus [35] = assay: Neurotoxicity in albino CF1 mouse assessed as behavioral impairment at 300 mg/kg, ip after 2 hrs by rotorod test; format: toxicity, organism-based; settings: in vivo
Rattus norvegicus [36] = assay: Neurotoxicity in albino Sprague-Dawley rat assessed as behavioral impairment at 30 mg/kg, ip after 0.5 hrs by rotorod test; format: toxicity, organism-based; settings: in vivo
Rattus norvegicus [37] = assay: Anticonvulsant activity in ip dosed albino Sprague-Dawley rat assessed as protection against subcutaneous metrazol-induced seizures by measuring time to peak effect; format: functional
Mus musculus [38] = assay: Anticonvulsant activity in ip dosed albino CF1 mouse assessed as protection against maximal electroshock-induced seizures; format: functional
Mus musculus [39] = assay: Anticonvulsant activity in ip dosed albino CF1 mouse assessed as protection against 6 Hz current-induced seizures by psychomotor test; format: functional
[40] = Neurotoxicity in ip dosed albino Sprague-Dawley rat assessed as motor impairment by rotorod test; format: toxicity, organism-based; settings: in vivo
Rattus norvegicus [41] = assay: Anticonvulsant activity in albino Sprague-Dawley rat assessed as protection against maximal electroshock-induced seizures at 30 mg/kg, ip after 0.5 hrs; format: functional, organism-based
Rattus norvegicus [42] = assay: Anticonvulsant activity in ip dosed albino Sprague-Dawley rat assessed as protection against maximal electroshock-induced seizures by measuring time to peak effect; format: functional
Mus musculus [43] = assay: Anticonvulsant activity in ip dosed albino CF1 mouse assessed as protection against maximal electroshock-induced seizures by measuring time to peak effect; format: functional
Mus musculus [44] = assay: Anticonvulsant activity in albino CF1 mouse assessed as protection against maximal electroshock-induced seizures at 30 mg/kg, ip after 0.5 hrs; format: functional, organism-based
Rattus norvegicus [45] = assay: Anticonvulsant activity in ip dosed albino Sprague-Dawley rat assessed as protection against maximal electroshock-induced seizures; format: functional

Structure (SMILES): CCCC(CC)OC(=O)NCCCn1ccnc1 (stereo not given)
- Time (Mus musculus [1]): 0.5 h
- selectivity ratio [2]: 0.64
- Activity (Mus musculus [3]): Active
- Activity (Mus musculus [4]): Non-toxic
- TD50 [5]: 86 mg/kg
- selectivity ratio [6]: 1
- Activity (Mus musculus [7]): Toxic
- ED50 (Mus musculus [8]): > 50 mg/kg
- Time (Mus musculus [9]): 0.5 h
- selectivity ratio [10]: 3.1
- Activity (Mus musculus [11]): Active
- Activity (Mus musculus [12]): Non-toxic
- Activity (Rattus norvegicus [13]): inactive
- Activity (Rattus norvegicus [14]): Non-toxic
- selectivity ratio [15]: 5.4
- Activity (Rattus norvegicus [16]): inactive
- Activity (Rattus norvegicus [17]): Non-toxic
- Activity (Rattus norvegicus [18]): Non-toxic
- Activity (Rattus norvegicus [19]): Active
- Activity (Rattus norvegicus [20]): Active
- Activity (Rattus norvegicus [21]): Non-toxic
- Activity (Rattus norvegicus [22]): Non-toxic
- Activity (Rattus norvegicus [23]): Non-toxic
- ED50 (Rattus norvegicus [24]): > 92 mg/kg
- Activity (Rattus norvegicus [25]): inactive
- Activity (Mus musculus [26]): inactive
- Activity (Rattus norvegicus [27]): Active
- Activity (Mus musculus [28]): Active
- Activity (Mus musculus [29]): Toxic
- selectivity ratio [30]: 1.7
- Activity (Mus musculus [31]): Active
- Activity (Mus musculus [32]): Non-toxic
- Activity (Rattus norvegicus [33]): Non-toxic
- Activity (Mus musculus [34]): Non-toxic
- Activity (Mus musculus [35]): Toxic
- Activity (Rattus norvegicus [36]): Non-toxic
- Time (Rattus norvegicus [37]): 0.25 h
- ED50 (Mus musculus [38]): 28 mg/kg
- ED50 (Mus musculus [39]): 135 mg/kg
- TD50 [40]: 92 mg/kg
- Activity (Rattus norvegicus [41]): Active
- Time (Rattus norvegicus [42]): 0.25 h
- Time (Mus musculus [43]): 0.5 h
- Activity (Mus musculus [44]): Active
- ED50 (Rattus norvegicus [45]): 17 mg/kg

Reference: ChEMBL document CHEMBL3826915, “Design and comparative anticonvulsant activity assessment of CNS-active alkyl-carbamoyl imidazole derivatives” (Bioorg Med Chem, 2016)
